Test results reported in US6914045B2, “Glycopeptide antibiotics” (Wyeth Holdings Corporation, priority 2001, dated 2005).

How the values were obtained:
Experiment in all cases: in vitro antibacterial evaluation, MIC by broth dilution
Format in all cases: cell-based
Escherichia coli = conditions: 18 hours at 35° C.
Staphylococcus sp. = conditions: broth dilution, 18 hours at 35° C.; for MIC Staphylococcus aureus (GC 1131): strain GC 1131
Experimental: (§1) Methods for in vitro Antibacterial Evaluation (Table 1)
(§2) The minimum inhibitory concentration (MIC), the lowest concentration of the antibiotic which inhibits growth of the test organism, is determined by the broth dilution method using Muller-Hinton II […] (Baltimore Biological Laboratories) following the recommendations of the National Committee for Clinical Laboratory Standards [Methods for dilution antimicrobial susceptibility tests for bacteria that grow aerobically, approved standard M7-A2, National Committee for Clinical Laboratory Standards, Villanova, Pa.].
(§3) An inoculum level of 5×10^5 CFU/mL, and a range of antibiotic concentrations (64-0.06 μg/mL) is used. […] The test organisms include a spectrum of Gram-positive bacteria comprised of Staphylococcus sp., Streptococcus sp. and Enterococcus sp. These organisms include recent clinical isolates that are resistant to methicillin, penicillin and/or vancomycin.

Enterococcus sp. = conditions: broth dilution, 18 hours at 35° C.
Experimental: as §1, §2, §3

Streptococcus sp. = conditions: broth dilution, 18 hours at 35° C.
Experimental: as §1, §2, §3

CCCC(C)C1OCC2OC(OC3C(CO)OC(Oc4ccc(CC5NC(=O)C(C(C)c6ccc(Cl)cc6)NC(=O)CNC(=O)C(CO)NC(=O)C(C(O)C6CNC(=N)N6C6OC(CO)C(O)C(O)C6O)NC(=O)C(C(O)C6CNC(=N)N6)NC5=O)cc4)C(O)C3O)C(O)C(O)C2O1 (stereo not shown) [Example 194]
32 µg/mL: MIC Escherichia coli (GC 4559) (Escherichia coli)
1 µg/mL: MIC Staphylococcus aureus (GC 1131) (Staphylococcus sp.; inoculum 5×10^5 CFU/mL) | MIC Staphylococcus aureus (GC 1131) (Staphylococcus sp.) | MIC Staphylococcus aureus (GC 3051) (Staphylococcus sp.; strain GC 3051) | MIC Staphylococcus aureus (GC 3053) (Staphylococcus sp.; strain GC 3053) | MIC Staphylococcus aureus (GC 4545) (Staphylococcus sp.; strain GC 4545) | MIC Coagulase Negative Staphylococcus (GC 4547) (Staphylococcus sp.; strain GC 4547) | MIC Coagulase Negative Staphylococcus (GC 4551) (Staphylococcus sp.; strain GC 4551) | MIC Enterococcus faecalis (GC 2242) (Enterococcus sp.) | MIC Enterococcus faecalis (GC 3059) (Enterococcus sp.) | MIC Enterococcus faecalis (GC 4552) (Enterococcus sp.) | MIC Enterococcus faecalis (GC 4554) (Enterococcus sp.) | MIC Enterococcus faecium (GC 2243) (Enterococcus sp.) | MIC Enterococcus faecium (GC 4556) (Enterococcus sp.) | MIC Enterococcus faecalis (GC 2242) (Enterococcus sp.; inoculum 5×10^5 CFU/mL, strain GC 2242) | MIC Enterococcus faecium (GC 2243) (Enterococcus sp.; inoculum 5×10^5 CFU/mL, strain GC 2243) | MIC Enterococcus faecalis (GC 3059) (Enterococcus sp.; inoculum 5×10^5 CFU/mL, strain GC 3059) | MIC Enterococcus faecalis (GC 4552) (Enterococcus sp.; inoculum 5×10^5 CFU/mL, strain GC 4552) | MIC Enterococcus faecalis (GC 4554) (Enterococcus sp.; inoculum 5×10^5 CFU/mL, strain GC 4554) | MIC Enterococcus faecium (GC 4556) (Enterococcus sp.; inoculum 5×10^5 CFU/mL, strain GC 4556)
0.12 µg/mL: MIC Streptococcus pneumoniae (GC 1894) (Streptococcus sp.) | MIC Streptococcus pneumoniae (GC 1894) (Streptococcus sp.; inoculum 5×10^5 CFU/mL, strain GC 1894)
0.5 µg/mL: MIC Staphylococcus aureus (ATCC 29213) (Staphylococcus sp.; strain ATCC 29213) | MIC Staphylococcus aureus (GC 4541) (Staphylococcus sp.; strain GC 4541) | MIC Staphylococcus aureus (GC 4542) (Staphylococcus sp.; strain GC 4542) | MIC Staphylococcus aureus-SMITH (GC 4543) (Staphylococcus sp.; strain GC 4543) | MIC Staphylococcus haemolyticus (GC 4546) (Staphylococcus sp.; strain GC 4546) | MIC Coagulase Negative Staphylococcus (GC 4548) (Staphylococcus sp.; strain GC 4548) | MIC Coagulase Negative Staphylococcus (GC 4549) (Staphylococcus sp.; strain GC 4549) | MIC Coagulase Negative Staphylococcus (GC 6257) (Staphylococcus sp.; strain GC 6257) | MIC Enterococcus faecalis (GC 6189) (Enterococcus sp.) | MIC Enterococcus faecalis (GC 6189) (Enterococcus sp.; inoculum 5×10^5 CFU/mL, strain GC 6189)
2 µg/mL: MIC Escherichia coli (GC 4560) (Escherichia coli) | MIC Staphylococcus aureus (GC 4544) (Staphylococcus sp.; strain GC 4544) | MIC Enterococcus avium (GC 4558) (Enterococcus sp.) | MIC Enterococcus faecalis (ATCC 29212) (Enterococcus sp.) | MIC Enterococcus faecalis (GC 2691) (Enterococcus sp.) | MIC Enterococcus faecalis (GC 4553) (Enterococcus sp.) | MIC Enterococcus faecium (GC 4557) (Enterococcus sp.) | MIC Enterococcus faecalis (ATCC 29212) (Enterococcus sp.; inoculum 5×10^5 CFU/mL, strain ATCC 29212) | MIC Enterococcus faecalis (GC 2691) (Enterococcus sp.; inoculum 5×10^5 CFU/mL, strain GC 2691) | MIC Enterococcus faecalis (GC 4553) (Enterococcus sp.; inoculum 5×10^5 CFU/mL, strain GC 4553) | MIC Enterococcus faecium (GC 4557) (Enterococcus sp.; inoculum 5×10^5 CFU/mL, strain GC 4557) | MIC Enterococcus avium (GC 4558) (Enterococcus sp.; inoculum 5×10^5 CFU/mL, strain GC 4558)
0.25 µg/mL: MIC Streptococcus pneumoniae (ATCC 6301) (Streptococcus sp.) | MIC Streptococcus pneumoniae (ATCC 6301) (Streptococcus sp.; inoculum 5×10^5 CFU/mL, strain ATCC 6301)
<0.06 µg/mL: MIC Streptococcus agalactiae (GC 4564) (Streptococcus sp.) | MIC Streptococcus pneumoniae (GC 4565) (Streptococcus sp.) | MIC Streptococcus pyogenes (GC 4563) (Streptococcus sp.) | MIC Streptococcus pyogenes (GC 4563) (Streptococcus sp.; inoculum 5×10^5 CFU/mL, strain GC 4563) | MIC Streptococcus agalactiae (GC 4564) (Streptococcus sp.; inoculum 5×10^5 CFU/mL, strain GC 4564) | MIC Streptococcus pneumoniae (GC 4565) (Streptococcus sp.; inoculum 5×10^5 CFU/mL, strain GC 4565)
